The values that follow are results of earlier work, collected in article PMC7247425, “MRP1-Collateral Sensitizers as a Novel Therapeutic Approach in Resistant Cancer Therapy: An In Vitro and In Vivo Study in Lung Resistant Tumor” (International Journal of Molecular Sciences, 2020).

As a reminder, the EC50 is the midpoint of the concentration-response curve.

In this series the test system is MCF7 cell line. Details: method as in PMID 24106081. Conditions: MCF7 cells; read-out: EC50, cytotoxicity in MCF7; cited from earlier work.

With `COc1cc2c(cc1OC)CN(CCCCc1cn(-c3ccc(F)cc3)c3ccccc13)CC2` [F397, 6,7-dimethoxy-2-{4-[1-(4-fluorophenyl)-1H-indol-3-yl]butyl}-1,2,3,4-tetrahydroisoquinoline], the EC50 was 17.8 µM.
